Data on 23 molecules can be found in patent publication US20110105474A1, “HETEROCYCLIC DERIVATIVES AS HDAC INHIBITORS” (DAC S.r.l., priority 2008, published 2011).

Counter-ions that a name gives are not always drawn.

What all share (type): cell-based
The subject of test [1] is A549 cells. Description: Cell growth, CellTiter-Glo Luminescent Cell Viability Assay, A549. To be noted: Homo sapiens, 72 h incubation. The source says: (§1) CellTiter-Glo® Luminescent Cell Viability Assay (Promega) is a homogeneous method of determining the number of viable cells in culture based on quantitation of the present ATP, which indicates the presence of metabolically active cells. The homogeneous assay procedure involves addition of a single reagent (CellTiter-Glo®Reagent) directly to the cells, which leads to cell lysis and generation of a luminescent signal proportional to the amount of the ATP and the number of cells present in culture. The assay relies on the properties of a proprietary thermostable luciferase (Ultra-Glo® recombinant luciferase), which generates a luminescent signal.
(§2) K562, A549 and HCT-116 cells, in exponential growth, were incubated for 72 h with different concentrations of the inhibitors. After 72 h, a volume of CellTiter-Glo® Reagent equal to the volume of cell culture medium was added. The content was mixed for 2 min to induce cell lysis. The luminescence was recorded after further 10 min at RT in order to obtain a stabilized luminescent signal.
(§3) The IC50 was calculated using GraphPad Software.
(§4) IC50 results were allocated to one of 3 ranges as follows: Range A: IC50≦1.0 μM; Range B: from 1.0 to 3.0 μM; Range C: IC50≧3.0 μM.

Test [2] deals with K562 cells. Description: Cell growth, CellTiter-Glo Luminescent Cell Viability Assay, K562. The following applies: Homo sapiens, 72 h incubation.
Text: as §1, §2, §3, §4

Test [3] relates to HCT-116 cells. Briefly: Cell growth, CellTiter-Glo Luminescent Cell Viability Assay, HCT-116. The following applies: Homo sapiens, 72 h incubation, read-out: IC50 HCT116.
Text: as §1, §2, §3, §4
In general terms: In ATP-based viability assays light output follows the ATP content of the culture.

As to `O=C(/C=C/c1cccc(/C=C/C(=O)N2CCN(c3ccc(Cl)cc3)CC2)n1)NO` [Example 21, (E)-3-(6-{(E)-3-[4-(4-Chloro-phenyl)-piperazin-1-yl]-3-oxo-propenyl}-pyridin-2-yl)-N-hydroxy-acrylamide hydrochloride], the IC50 in test [1], in test [2] and in test [3] was at most 1 µM in each case.
As to `O=C(/C=C/c1cccc(/C=C/C(=O)N2CCN(c3ncccn3)CC2)n1)NO` [Example 20, (E)-N-Hydroxy-3{-6-[(E)-3-oxo-3-(4-pyrimidin-2-yl-piperazin-1-yl)-propenyl]-pyridin-2-yl}-acrylamide hydrochloride], the IC50 in test [1], in test [2] and in test [3] was at least 3 µM in each case.
Regarding `O=C(/C=C/c1cccc(/C=C/C(=O)N2CCCC(c3ccccc3)C2)c1)NO` (racemic) [Example 83, (±)-(E)-N-Hydroxy-3-{3-[(E)-3-oxo-3-(3-phenyl-piperidin-1-yl)-propenyl]-phenyl}-acrylamide], the IC50 in test [1], in test [2] and in test [3] was at least 3 µM throughout.
For `O=C(/C=C/c1cccc(/C=C/C(=O)N2CCCC(c3ccc4ccccc4c3)C2)n1)NO` (racemic) [Example 47, (±)-(E)-N-Hydroxy-3-{6-[(E)-3-(3-naphthalen-2-yl-piperidin-1-yl)-3-oxo-propenyl]-pyridin-2-yl}-acrylamide hydrochloride], the IC50 in test [1], in test [2] and in test [3] was at most 1 µM each time.
Turning to `CC(C)c1ccc(N2CCN(C(=O)/C=C/c3cccc(/C=C/C(=O)NO)n3)CC2)cc1` [Example 49, (E)-N-Hydroxy-3-(6-{(E)-3-[4-(4-isopropyl-phenyl)-piperazin-1-yl]-3-oxo-propenyl}-pyridin-2-yl)-acrylamide hydrochloride], the IC50 in test [1] is 1 to 3 µM; in test [2], 1 to 3 µM; in test [3], at most 1 µM.
`O=C(/C=C/c1cccc(/C=C/C(=O)N2CCC(Cc3ccccc3)CC2)n1)NO` [Example 17, (E)-3-{6-[(E)-3-(4-Benzyl-piperidin-1-yl)-3-oxo-propenyl]-pyridin-2-yl}-N-hydroxy-acrylamide hydrochloride]: the IC50 in test [1], in test [2] and in test [3] was 1 to 3 µM each time.
Take `COc1cccc(C2CCCN(C(=O)/C=C/c3cccc(/C=C/C(=O)NO)n3)C2)c1` (racemic) [Example 68, (±)-(E)-N-Hydroxy-3-(6-{(E)-3-[3-(3-methoxy-phenyl)-piperidin-1-yl]-3-oxo-propenyl}-pyridin-2-yl)-acrylamide hydrochloride]: the IC50 in test [1], in test [2] and in test [3] was at most 1 µM throughout.
On to `O=C(/C=C/c1cccc(/C=C/C(=O)N2CCC[C@@H](c3ccccc3)C2)n1)NO` [Example 73, (E)-N-Hydroxy-3-{6-[(E)-3-oxo-3-((S)-3-phenyl-piperidin-1-yl)-propenyl]-pyridin-2-yl}-acrylamide hydrochloride], for which the IC50 in test [1], in test [2] and in test [3] was at most 1 µM throughout.
As for `O=C(/C=C/c1cccc(/C=C/C(=O)N2CCN(c3ccc(C(F)(F)F)cc3)CC2)c1)NO` [Example 91, (E)-N-Hydroxy-3-(3-{(E)-3-oxo-3-[4-(4-trifluoromethyl-phenyl)-piperazin-1-yl]-propenyl}-phenyl)-acrylamide hydrochloride], the IC50 in test [1], in test [2] and in test [3] was 1 to 3 µM each time.
As to `O=C(/C=C/c1cccc(/C=C/C(=O)N2CCN(CCc3ccccc3)CC2)n1)NO` [Example 23, (E)-N-Hydroxy-3-{6-[(E)-3-oxo-3-(4-phenethyl-piperazin-1-yl)-propenyl]-pyridin-2-yl}-acrylamide hydrochloride], the IC50 in test [1] was at least 3 µM; in test [2], 1 to 3 µM; in test [3], 1 to 3 µM.
For the molecule `Cc1cccc(C)c1N1CCN(C(=O)/C=C/c2cccc(/C=C/C(=O)NO)n2)CC1` [Example 31, (E)-3-(6-{(E)-3-[4-(2,6-Dimethyl-phenyl)-piperazin-1-yl]-3-oxo-propenyl}-pyridin-2-yl)-N-hydroxy-acrylamide hydrochloride], the IC50 in test [1] is at least 3 µM; in test [2], 1 to 3 µM; in test [3], 1 to 3 µM.
In the case of `O=C(/C=C/c1cccc(/C=C/C(=O)N2CCNC(c3ccccc3)C2)n1)NO` (racemic) [Example 33, (±)-(E)-N-Hydroxy-3-{6-[(E)-3-oxo-3-(3-phenyl-piperazin-1-yl)-propenyl]-pyridin-2-yl}-acrylamide hydrochloride], the IC50 is at least 3 µM in test [1], 1 to 3 µM in test [2] and 1 to 3 µM in test [3].
Consider `O=C(/C=C/c1cccc(/C=C/C(=O)N2CCC3(CC2)OCc2ccccc23)n1)NO` [Example 61, (E)-3-(6-{(E)-3-[Spiro[2-benzofuran-1,4′-piperidine-1′-yl]-3-oxo-propenyl}-pyridin-2-yl)-N-hydroxy-acrylamide hydrochloride], for which the IC50 in test [1] was 1 to 3 µM; in test [2] it was at most 1 µM; in test [3] it was at most 1 µM.
Take `O=C(/C=C/c1cccc(/C=C/C(=O)N2CCC(c3nc4ccccc4o3)CC2)n1)NO` [Example 57, (E)-3-{6-[(E)-3-(4-Benzooxazol-2-yl-piperidin-1-yl)-3-oxo-propenyl]-pyridin-2-yl}-N-hydroxy-acrylamide hydrochloride]: the IC50 in test [1] is at least 3 µM; in test [2], at least 3 µM; in test [3], 1 to 3 µM.
With `O=C(/C=C/c1cccc(/C=C/C(=O)N2CCC(C(=O)c3ccccc3)CC2)n1)NO` [Example 24, (E)-3-{6-[(E)-3-(4-Benzoyl-piperidin-1-yl)-3-oxo-propenyl]-pyridin-2-yl}-N-hydroxy-acrylamide hydrochloride], the figures for the IC50 in test [1], in test [2] and in test [3] were at least 3 µM, 1 to 3 µM and 1 to 3 µM, respectively.
On to `O=C(/C=C/c1cccc(/C=C/C(=O)N2CCCc3ccccc32)n1)NO` [Example 55, (E)-3-{6-[(E)-3-(3,4-Dihydro-2H-quinolin-1-yl)-3-oxo-propenyl]-pyridin-2-yl}-N-hydroxy-acrylamide trifluoroacetate], for which the IC50 in test [1], in test [2] and in test [3] was at most 1 µM each time.
On to `Cc1cccc(C2CCCN(C(=O)/C=C/c3cccc(/C=C/C(=O)NO)c3)C2)c1` (racemic) [Example 78, (±)-(E)-N-Hydroxy-3-{3-[(E)-3-oxo-3-(3-m-tolyl-piperidin-1-yl)-propenyl]-phenyl}-acrylamide], for which the IC50 in test [1], in test [2] and in test [3] was at least 3 µM throughout.
As to `O=C(/C=C/c1cccc(/C=C/C(=O)N2C[C@@H]3C[C@H]2CN3c2ccc(Cl)cc2)n1)NO` [Example 41, (E)-3-(6-{(E)-3-[5-(4-Chloro-phenyl)-(1S,4S)-2,5-diaza-bicyclo[2.2.1]hept-2-yl]-3-oxo-propenyl}-pyridin-2-yl)-N-hydroxy-acrylamide trifluoroacetate], the half-inhibitory concentration (IC50) was at least 3 µM in test [1], 1 to 3 µM in test [2] and 1 to 3 µM in test [3].
On to `O=C(/C=C/c1cccc(/C=C/C(=O)N2CCc3[nH]c4ccccc4c3C2)n1)NO` [Example 45, (E)-N-Hydroxy-3-{6-[(E)-3-oxo-3-(1,3,4,5-tetrahydro-pyrido[4,3-b]indol-2-yl)-propenyl]-pyridin-2-yl}-acrylamide hydrochloride], for which the IC50 in test [1] is at least 3 µM; in test [2], 1 to 3 µM; in test [3] it was 1 to 3 µM.
For `O=C(/C=C/c1cccc(/C=C/C(=O)N2CCCCC2c2ccccc2)n1)NO` (racemic) [Example 53, (±)-(E)-N-Hydroxy-3-{6-[(E)-3-oxo-3-(2-phenyl-piperidin-1-yl)-propenyl]-pyridin-2-yl}-acrylamide hydrochloride], the IC50 is 1 to 3 µM in test [1], at most 1 µM in test [2] and at most 1 µM in test [3].
For the molecule `O=C(/C=C/c1ccc(/C=C/C(=O)N2CCN(c3ccccc3)CC2)cn1)NO` [Example 11, (E)-N-Hydroxy-3-{5-[(E)-3-oxo-3-(4-phenyl-piperazin-1-yl)-propenyl]-pyridin-2-yl}-acrylamide], the half-inhibitory concentration (IC50) in test [1] was at least 3 µM; in test [2], 1 to 3 µM; in test [3], 1 to 3 µM.
For `O=C(/C=C/c1cccc(/C=C/C(=O)N2CCCC(c3cccc(C(F)(F)F)c3)C2)n1)NO` (racemic) [Example 71, (±)-(E)-N-Hydroxy-3-(6-{(E)-3-oxo-3-[3-(3-trifluoromethyl-phenyl)-piperidin-1-yl]-propenyl}-pyridin-2-yl)-acrylamide hydrochloride], the IC50 is 1 to 3 µM in test [1], at most 1 µM in test [2] and at most 1 µM in test [3].
As to `O=C(/C=C/c1cccc(/C=C/C(=O)N2CCC(n3c(-c4ccccc4)nc4ccccc43)CC2)n1)NO` [Example 62, (E)-N-Hydroxy-3-(6-{(E)-3-oxo-3-[4-(2-phenyl-benzoimidazol-1-yl)-piperidin-1-yl]-propenyl}-pyridin-2-yl)-acrylamide hydrochloride], the IC50 in test [1], in test [2] and in test [3] was at least 3 µM in each case.

Broadly, the IC50 is the concentration that gives 50% inhibition.
